US20250288607A1, “METHODS FOR TREATING SEXUAL DYSFUNCTION ASSOCIATED WITH POLYCYSTIC OVARY SYNDROME (PCOS) OR WITH HYPOACTIVE SEXUAL DESIRE DISORDER (HSDD)” (INSTITUT NATIONAL DE LA SANTÉ ET DE LA RECHERCHE MÉDICALE, priority 2022, published 2025)
No end group written: not given here.

Columns and labels:
[1] = system: control and PAMH female mice; experiment: Female sexual behavior test (lordosis, mild and severe rejection quotients) after pharmacological treatment; format: in vivo
Method: (§1) Female sexual behavior test. Estrus female mice were tested for lordosis behavior over the dark phase following previously reported protocols (25, 40). During the annotation of sexual behavior, we also assessed sexual rejection behaviors over the same period of time.
All behavior tests were videotaped and manually annotated using Behavioral Observation Research Interactive Software (BORIS) (76).
(§2) Pharmacological treatments. SNAP: Female mice received a subcutaneous (s.c.) injection with 8 mg/kg S-nitroso-N-Acetyl-DL-Penicillamine (SNAP) (Sigma-Aldrich; catalog ##N3398) diluted in 100 μL of saline 15 minutes before behavioral testing and the chosen dose was based on previous reports (25). Kisspeptin: Female mice received a s.c. injection with 0.52 μg/kg kisspeptin-10 (Kiss-10; rodent metastin (45-54) amide; GeneCust; YY-10-NH2) diluted in 100 μL of saline 30 minutes before behavioral test based on previous reports (25). Sildenafil citrate: Female mice received an i.p. injection with 15 mg/kg sildenafil citrate (Sigma-Aldrich; catalog #171599-83-0) 1h before behavioral assessment based on previous trials from our laboratory (Chachlaki et al., unpublished data). Sildenafil citrate was firstly diluted in dimethyl sulfoxide (DMSO) to make up a stock solution of 25 mg/mL and further diluted with sterile saline to make up a working solution of 15 mg/mL for s.c. injection on the day of the injection.
Previous reports indicate that the control of female sexual behavior is highly dependent upon NOergic signaling in rodents (23-25). Having established the loss of nNOS expression in hypothalamic sites in PAMH mice, we next addressed whether the replenishment of NO levels could rescue normal sexual function in these females. Control and PAMH female mice were injected either with saline or S-nitroso-N-acetylpenicillamine (SNAP; 8 mg/kg), a well-known NO donor to boost circulating NO levels.
NO-mediated physiological responses are mostly dictated by intracellular levels of cyclic guanosine monophosphate (cGMP). Commonly used drugs for male sexual dysfunction, such as sildenafil citrate, commercialized as Viagra®, enhance NOergic signaling by decreasing the degradation of cGMP accumulating intracellular levels of the latest. To determine the severity of NO insufficiency in PAMH mice, we administered sildenafil citrate to both groups and evaluated lordosis behavior.

cFOS = experiment: Percentage of cells expressing cFOS in hypothalamic and limbic areas following the lordosis test; format: in vivo, mice
Method: Immunohistochemistry. Tissue preparation for immunohistochemistry is shown in SI Appendix. Free-floating immunohistochemistry was performed as described elsewhere (29, 73). Primary antibodies were used at the respective concentrations: polyclonal sheep anti-nNOS (1:2,000; generous gift from Dr. Piers C. Emson and validated elsewhere (74)), polyclonal rabbit anti-PR (1:500; Sigma; catalog #SAB4502184), rabbit anti-red fluorescent protein (RPF) (1:500; Rockland Immunochemicals, Inc.; catalog #600-401-379), and polyclonal chicken anti-GFP (1:1,000; Aves Labs Inc., catalog #GFP-1020). Brain sections were incubated with a cocktail of primary antibodies and 2% normal donkey serum (NDS) in incubation solution (0.25% bovine serum albumin with 0.3% Triton in TBS) over 48 hours at 4° C. Following washes with TBS, brain sections were incubated with secondary antibodies. Alexa Fluor 488 donkey anti-sheep (reference #A11015), Alexa Fluor 647 donkey anti-rabbit, (reference #A31573), Alexa Fluor 568 donkey anti-rabbit (reference #A10042) were all purchased from Thermo Fisher Scientific Inc. and used at 1:400 dilution in TBS solution. Alexa Fluor 488 donkey anti-chicken (Jackson ImmunoResearch Labs; reference #703-545-155) was used at 1:500 dilution in TBS solution. Sections were mounted onto glass slides and left to dry until covered with Fluoromount-G™ with DAPI (Invitrogen/Thermo Fisher Scientific Inc.; reference #00-4959-52), and coverslipped.
Image acquisition and analysis. Two representative brain sections from each region (RP3V, VMH, rARN, mARN, and cARN) were chosen from each animal for Immunohistological analysis. Brain sections were firstly examined using an Axio Imager, Z1 ApoTome microscope (Zeiss, Oberkochen, Germany), and an AxioCam MRm camera (Zeiss). Confocal imaging and analyses Zeiss Spinning-Disk microscope Yokogawa CSU-X1 model (Zeiss; BioImaging Center Lille (BICeL), of the University of Lille, France). High magnification images were acquired taking Z-stacks of 0.5 μm-steps using a 40x-oil objective (1.30 NA). Confocal images were further processed with ImageJ software for cell counting analysis. Final analysis considered the average counting from two representative sections of each region.
We aimed to determine how 8 mg/kg SNAP treatment may change the neuronal activation landscape in the female brain in estrus control and PAMH mice following the lordosis test. […]

nNOS^VMH neurons [2] = experiment: Lordosis test with CNO pre-treatment followed by kisspeptin-10 (kisspeptin-nNOS^VMH coupling); format: in vivo, mice
Method: (§3) Chemogenetic manipulations (viral transfection, stereotaxic injections, and behavioral assessment). The AAV9 double floxed Gi-coupled hM4D DREADD fused with fluorescent mCherry protein under the control of human synapsin promoter (AAV-hSyn-DIO-hM4D(Gi)-mCherry) (Addgene; catalog #44362-AAV9) was stereotaxically injected into the vlVMH of Nosl-ires-cre female mice under 4% isoflurane anesthesia with constant airflow. Lordosis test was carried out as described above with sexually experience female mice after three lordosis test trials. Females received i.p. injection with 100 μL of clozapine N-oxide dihydrochloride (CNO; Tocris; catalog #6329), at a dose of 3 mg/kg diluted in sterile saline, one hour before behavioral assessment. Each mouse received either CNO or saline (vehicle) in a random order, and the two behavioral assessments were performed ten days apart.
as §2
Using a similar approach as described above, we stereotaxically delivered the expression of AAV9-hM4(Gi)-mCherry in nNOS^VMH neurons in both Nos1cre/+ and wild-type female mice. […]

[3] = cited from earlier work
nNOS^VMH neurons [4] = experiment: Lordosis test after chemogenetic inhibition (hM4D(Gi) DREADD) of nNOS^VMH neurons with CNO; format: in vivo, mice
Method: as §1, §3
Among the three hypothalamic areas investigated in our study, the VMH (nNOS^VMH) is considered as the NOergic output responsible to control sexual performance in mammalian females (23), whereas nNOS^RP3V and nNOS^ARN are likely to contribute to the neuroendocrine control of GnRH/LH secretion (57, 58). […] To this end, we selectively targeted the expression of designer receptors exclusively activated by designer drugs (DREADD)-based tool hM4(Gi) into the VMH of Nos1cre/+ (Nos1-ires-cre; B6.129-Nos1tm1(cre)Mgmj/J) female mice (59). Viral transduction was established using a Cre-recombinase-dependent adeno-associated virus serotype 9 in which hM4 (Gi) is fused with mCherry reporter under the control of human synapsin (hSyn) promoter (AAV9-hSyn-DIO-hM4D(Gi)-mCherry) (Data not shown). The control group was composed of wild-type female mice receiving the same stereotaxic surgery. This approach provided an average efficiency of 86.82±2.33% of nNOS^VMH neurons targeted with AAV9-hM4 (Gi)-mCherry and with an off-target infection rate of 5.48±2.17% in non-nNOS^VMH neurons (N=5; Data not shown).
Following viral transfection, Nos1^cre/+ female mice were subjected to two lordosis tests and randomly received either vehicle or the DREADD ligand clozapine N-oxide (CNO; 3 mg/kg) one hour before behavioral assessment.

[5] = PAMH female mice, SNAP 8 mg/kg, P<0.0001, similar to control levels
[6] = control female mice, SNAP 8 mg/kg
[7] = Nos1cre/+ female mice, CNO 3 mg/kg, P<0.01
[8] = wild-type control group with same surgery, CNO 3 mg/kg

## CC(=O)NC(C(=O)O)C(C)(C)SN=O (racemic) [SNAP, S-nitroso-N-Acetyl-DL-Penicillamine]
[1]; PAMH female mice, SNAP 8 mg/kg s.c. 15 minutes before test, mean±SEM
  lordosis quotient (LQ): 68.17±6.97
[1]; PAMH female mice, SNAP 8 mg/kg vs saline
  fold increase of lordosis behavior vs saline: ~7.28 fold
[1]; PAMH female mice, SNAP 8 mg/kg, P<0.0001
  lordosis behavior (in words): robustly recovered normal lordosis behavior in PAMH female mice similar to control levels
[1]; [5]
  mild rejection behavior (MRQ): significantly reduced
  severe rejection behavior (SRQ): significantly reduced
[1]; [6]
  mild rejection behavior (MRQ): did not change these parameters
  severe rejection behavior (SRQ): did not change these parameters
cFOS; PAMH mice, SNAP 8 mg/kg
  cFOS expression in vlPAG and dmPAG: did not alter cFOS expression
cFOS; PAMH mice, SNAP 8 mg/kg, P<0.05
  proportion of nNOS neurons expressing cFOS (vlVMH, pdMeA): fully restored the proportion of nNOS cells expressing cFOS to control levels
cFOS; control mice, SNAP 8 mg/kg vs vehicle, P<0.05
  cFOS expression in vlPAG and dmPAG: lower cFOS expression compared with vehicle-treated control mice
cFOS; estrus PAMH mice, SNAP 8 mg/kg, after lordosis test
  cFOS expression in MPA, MnPO, vlVMH and pdMeA: increased cFOS expression in all of these four regions in PAMH mice to control levels

## rodent metastin (45-54) amide (YNWNSFGLRY-NH2; UniProt Q6Y4S4 110-119, looked up) [kisspeptin-10, kisspeptin-10 peptide from GeneCust]
nNOS^VMH neurons [2]; control (wild-type) female mice, kisspeptin-10 0.52 μg/kg, -30 min, P<0.05
  lordosis performance: significantly enhanced lordosis performance

## [N]=O [Nitric oxide]
[3]
  half-life in the blood: a few seconds

## C[N+]1([O-])CCN(C2=Nc3cc(Cl)ccc3Nc3ccccc32)CC1.Cl.Cl [CNO, clozapine N-oxide dihydrochloride]
nNOS^VMH neurons [4]; Nos1cre/+ female mice with AAV9-hM4D(Gi)-mCherry in VMH, CNO 3 mg/kg i.p. one hour before test, P<0.01 vs vehicle
  lordosis quotient (LQ): 4.24±2.26
nNOS^VMH neurons [4]; [7]
  mild rejection behavior vs vehicle-injected mice: higher
  severe rejection behavior vs vehicle-injected mice: higher
nNOS^VMH neurons [4]; [8]
  lordosis behavior, CNO vs vehicle: did not show any difference between treatments
  mild rejection behavior, CNO vs vehicle: did not show any difference between treatments
  severe rejection behavior, CNO vs vehicle: did not show any difference between treatments
nNOS^VMH neurons [2]; Nos1cre/+ female mice, CNO pre-treatment, P<0.01
  sexual (lordosis) behavior: caused significant disruption of sexual behavior
nNOS^VMH neurons [2]; control (wild-type) female mice, CNO alone, pre-injection -60 min
  lordosis behavioral output: did not have any effect
